According to patent EP0908457B1, “3-(1,2-benzisothiazol- and isoxazol-5-Y1)-2,4(1H,3H)-pyrimidinedione or thione and 3-(1,2-benzisothiazol- and isoxazol-5-y1)-4(3H)-pyrimidinone or thione herbicidal agents” (BASF AKTIENGESELLSCHAFT, priority 1997, dated 1999):

What was measured:
[1] = test system: Echinochloa oryzoides (Ard.) Fritsch.; assay: Preemergence weed control under flooded paddy conditions, ECHORC (Watergrass (Calif.)); type: in vivo; conditions: preemergence weeds, flooded paddy, rated three to four weeks after treatment; note: meaning of each grade not given here
[2] = test system: Cyperus iria; assay: Preemergence weed control under flooded paddy conditions, CYPIR (Rice Flatsedge); type: in vivo; conditions: preemergence weeds, flooded paddy, rated three to four weeks after treatment; note: meaning of each grade not given here
[3] = test system: Cyperus serotinus, Rottb.; assay: Preemergence weed control under flooded paddy conditions, CYPSE (Flatsedge); type: in vivo; conditions: preemergence weeds, rated three to four weeks after treatment; note: meaning of each grade not given here
[4] = test system: Monochoria vaginalis, Presl.; assay: Preemergence weed control under flooded paddy conditions, MOOVA (Monochoria); type: in vivo; conditions: preemergence weeds, flooded paddy, rated three to four weeks after treatment; note: meaning of each grade not given here
[5] = test system: Sagittaria pygmaea, L.; assay: Preemergence weed control under flooded paddy conditions, SAGPY (Arrowhead (Pygmaea)); type: in vivo; conditions: preemergence weeds, flooded paddy, rated three to four weeks after treatment; note: meaning of each grade not given here
[6] = test system: Echinochloa oryzoides (Ard.) Fritsch.; assay: Postemergence weed control under flooded paddy conditions, ECHORC (Watergrass (Calif.)); type: in vivo; conditions: rated three to four weeks after treatment
[7] = test system: Cyperus iria; assay: Postemergence weed control under flooded paddy conditions, CYPIR (Rice Flatsedge); type: in vivo; conditions: rated three to four weeks after treatment
[8] = test system: Cyperus serotinus, Rottb.; assay: Postemergence weed control under flooded paddy conditions, CYPSE (Flatsedge); type: in vivo; conditions: rated three to four weeks after treatment
[9] = test system: Monochoria vaginalis, Presl.; assay: Postemergence weed control under flooded paddy conditions, MOOVA (Monochoria); type: in vivo; conditions: rated three to four weeks after treatment
[10] = test system: Sagittaria pygmaea, L.; assay: Postemergence weed control under flooded paddy conditions, SAGPY (Arrowhead (Pygmaea)); type: in vivo; conditions: rated three to four weeks after treatment
[11] = test system: Oryza sativa, (L.) Tebonnet; assay: Rice tolerance to post-transplant applications under flooded paddy conditions (Example 187), ORYSAT (Rice, Tebonnet); conditions: rated three to four weeks after treatment; note: meaning of each grade not given here
[12] = test system: Oryza sativa, (L.) Tebonnet; assay: Rice tolerance to post-transplant applications under flooded paddy conditions (Example 188), ORYSAT (Rice, Tebonnet); conditions: rated three to four weeks after treatment

SMILES: CC(C)Oc1cccc(-c2nsc3ccc(-n4c(=O)cc(C(F)(F)F)n(C)c4=O)cc23)c1 [Example 328, 2,4(1H,3H)-Pyrimidinedione, 3-[3-(m-isopropoxyphenyl)-1,2-benzisothiazol-5-yl]-1-methyl-6-(trifluoromethyl)-]
- herbicidal effect rating, ECHORC ([1]; Rate 0.0320 kg/ha): 9.0
- herbicidal effect rating, ECHORC ([1]; Rate 0.0620 kg/ha): 9.0
- herbicidal effect rating, ECHORC ([1]; Rate 0.1250 kg/ha): 9.0
- herbicidal effect rating, ECHORC ([1]; Rate 0.2500 kg/ha): 9.0
- herbicidal effect rating, CYPIR ([2]; Rate 0.0320 kg/ha): 9.0
- herbicidal effect rating, CYPIR ([2]; Rate 0.0620 kg/ha): 9.0
- herbicidal effect rating, CYPIR ([2]; Rate 0.1250 kg/ha): 9.0
- herbicidal effect rating, CYPIR ([2]; Rate 0.2500 kg/ha): 9.0
- herbicidal effect rating, CYPSE ([3]; Rate 0.0320 kg/ha): 6.0
- herbicidal effect rating, CYPSE ([3]; Rate 0.0620 kg/ha): 6.0
- herbicidal effect rating, CYPSE ([3]; Rate 0.1250 kg/ha): 7.5
- herbicidal effect rating, CYPSE ([3]; Rate 0.2500 kg/ha): 9.0
- herbicidal effect rating, MOOVA ([4]; Rate 0.0320 kg/ha): 9.0
- herbicidal effect rating, MOOVA ([4]; Rate 0.0620 kg/ha): 9.0
- herbicidal effect rating, MOOVA ([4]; Rate 0.1250 kg/ha): 9.0
- herbicidal effect rating, MOOVA ([4]; Rate 0.2500 kg/ha): 9.0
- herbicidal effect rating, SAGPY ([5]; Rate 0.0320 kg/ha): 2.5
- herbicidal effect rating, SAGPY ([5]; Rate 0.0620 kg/ha): 3.0
- herbicidal effect rating, SAGPY ([5]; Rate 0.1250 kg/ha): 4.5
- herbicidal effect rating, SAGPY ([5]; Rate 0.2500 kg/ha): 4.5
- herbicidal effect rating, ECHORC ([6]; Rate 0.0320 kg/ha): 7.0
- herbicidal effect rating, ECHORC ([6]; Rate 0.0620 kg/ha): 9.0
- herbicidal effect rating, ECHORC ([6]; Rate 0.1250 kg/ha): 9.0
- herbicidal effect rating, ECHORC ([6]; Rate 0.2500 kg/ha): 9.0
- herbicidal effect rating, CYPIR ([7]; Rate 0.0320 kg/ha): 9.0
- herbicidal effect rating, CYPIR ([7]; Rate 0.0620 kg/ha): 9.0
- herbicidal effect rating, CYPIR ([7]; Rate 0.1250 kg/ha): 9.0
- herbicidal effect rating, CYPIR ([7]; Rate 0.2500 kg/ha): 9.0
- herbicidal effect rating, CYPSE ([8]; Rate 0.0320 kg/ha): 0.0
- herbicidal effect rating, CYPSE ([8]; Rate 0.0620 kg/ha): 2.0
- herbicidal effect rating, CYPSE ([8]; Rate 0.1250 kg/ha): 6.0
- herbicidal effect rating, CYPSE ([8]; Rate 0.2500 kg/ha): 6.0
- herbicidal effect rating, MOOVA ([9]; Rate 0.0320 kg/ha): 9.0
- herbicidal effect rating, MOOVA ([9]; Rate 0.0620 kg/ha): 9.0
- herbicidal effect rating, MOOVA ([9]; Rate 0.1250 kg/ha): 9.0
- herbicidal effect rating, MOOVA ([9]; Rate 0.2500 kg/ha): 9.0
- herbicidal effect rating, SAGPY ([10]; Rate 0.0320 kg/ha): 0.0
- herbicidal effect rating, SAGPY ([10]; Rate 0.0620 kg/ha): 0.0
- herbicidal effect rating, SAGPY ([10]; Rate 0.1250 kg/ha): 2.0
- herbicidal effect rating, SAGPY ([10]; Rate 0.2500 kg/ha): 6.0
- herbicidal effect rating ORYSAT ([11]; Rate 0.0320 kg/ha): 2.0
- herbicidal effect rating ORYSAT ([11]; Rate 0.0620 kg/ha): 3.0
- herbicidal effect rating ORYSAT ([11]; Rate 0.1250 kg/ha): 4.0
- herbicidal effect rating ORYSAT ([11]; Rate 0.2500 kg/ha): 4.5
- herbicidal effect rating, ORYSAT (rice tolerance) ([12]; Rate 0.0320 kg/ha): 2.0
- herbicidal effect rating, ORYSAT (rice tolerance) ([12]; Rate 0.0620 kg/ha): 4.0
- herbicidal effect rating, ORYSAT (rice tolerance) ([12]; Rate 0.1250 kg/ha): 4.0
- herbicidal effect rating, ORYSAT (rice tolerance) ([12]; Rate 0.2500 kg/ha): 4.0
